According to patent publication US20230331655A1, “HYDROXYN[…] AND METHODS OF USE THEREOF” (UNIVERSITY OF MARYLAND, BALTIMORE, priority 2020, published 2023):
“Also recorded” adds a separate entry of the source.

Assays:
Male C57BL/6J mice [1] = assay: naloxone-precipitated morphine withdrawal conditioned-place aversion; type: in vivo, mouse; details: 10 mg/kg i.p. 10 min before naloxone 1 mg/kg; morphine 10 mg/kg
Text: (§1) Animals: Male C57BL/6J mice (8 weeks old, Jackson laboratories) were kept in a temperature and humidity-controlled environment and maintained in a 12:12 hr light/dark cycle (lights on at 7:00 AM). Mice were singly-housed for all the studies due to increased aggression following opioid administration and were randomly assigned to treatment groups.
(§2) Drugs: (2R,6R)-HNK hydrochloride was synthesized and characterized. Absolute and relative stereochemistry for (2R,6R)-HNK was confirmed by small molecule x-ray crystallography. For the intraperitoneal injections, drugs were dissolved in 0.9% saline and given in a volume of 5 ml/kg.
Precipitated morphine place aversion: The conditioned-place aversion (CPA) protocol was performed in a rectangular three-chambered box (40 cm length×30 cm width×35 cm height; Stoelting Co., Wood Dale, IL, USA) comprised of two equal sized end-chambers (20 cm×18 cm×35 cm) and a central chamber (20 cm×10 cm×35 cm). […] The CPA protocol consisted of a pre-conditioning phase, four saline/morphine administration days in their home cages, a conditioning phase following morphine precipitated withdrawal in the CPA apparatus and a post-conditioning test. […] Time spent in each compartment was measured during both pre- and post-conditioning sessions using TopScan v2.0 (CleverSys, Inc, VA, USA).

Male C57BL/6J mice [2] = assay: sub-effective dose morphine conditioned-place preference after chronic social defeat stress; type: in vivo, mouse; details: single 10 mg/kg i.p. before conditioning, morphine 0.25 mg/kg
Text: as §1, §2
Social defeats: Socially defeated mice underwent a 10-day chronic social defeat stress paradigm. […]
Social interaction test: Following the social defeats, on day 11, test mice were screened for susceptibility in a social interaction/avoidance choice test. […] The time spent interacting (nose within close proximity of the cage) with the “stranger” mouse versus the empty cage was analyzed using TopScan video tracking software (CleverSys, Reston, Virginia). […]
Sucrose preference: Following the social interaction test, mice were assessed for sucrose preference in their home cages. […] Sucrose preference was measured (day 12) and were assigned to two groups: resilient (sucrose preference >70%) and susceptible (sucrose preference <55%). […]

Male C57BL/6J mice [3] = assay: high-dose morphine conditioned-place preference in stress-naive mice; type: in vivo, mouse; details: single 10 mg/kg i.p., morphine 5 mg/kg
Text: as §1, §2
Morphine conditioned-place preference: The conditioned-place preference (CPP) apparatus consisted of a rectangular three-chambered box (40 cm length×30 cm width×35 cm height; Stoelting Co., Wood Dale, IL, USA) comprised of two equal sized end-chambers (20 cm×18 cm×35 cm) and a central chamber (20 cm×10 cm×35 cm). […] The CPP protocol consisted of a pre-conditioning phase, eight conditioning sessions and a post-conditioning test. […]
Conditioning phase (Days 3-6): During the morning sessions of the conditioning phase, saline was administered and mice were placed in their non-opioid assigned compartment for 40 min. […] Time spent in each compartment was measured during both pre- and post-conditioning sessions using TopScan v2.0 (CleverSys, Inc, VA, USA).

mice = assay: overt adverse effects after oral administration; type: in vivo, mouse
[4] = 10 mg/kg, i.p.; cited from earlier work

## N[C@@]1(c2ccccc2Cl)CCC[C@@H](O)C1=O [(2R,6R)-HNK, (2R,6R)-hydroxynorketamine]
Male C57BL/6J mice [1]
  naloxone-induced conditioned-place aversion in morphine-dependent mice: prevents conditioned-place aversion; also recorded: completely prevented
Male C57BL/6J mice [2]; stress susceptible mice
  morphine-induced place preference (conditioning to sub-effective dose of morphine): prevents conditioning; also recorded: prevented morphine-induced place preference
Male C57BL/6J mice [2]; stress-resilient mice
  morphine-induced place preference (conditioning to sub-effective dose of morphine): no significant effect
Male C57BL/6J mice [3]
  development of high-dose morphine CPP: did not prevent
mice
  fold higher than doses required for antidepressant-relevant effects (dose without overt adverse effects): at least 9 fold
  oral doses without overt adverse effects: up to 450 mg/kg
[4]
  estimated concentration in brain tissue: < 20 µmol/kg
  estimated concentration in the extracellular hippocampal space: < 10 µM
